These results are taken from patent US20260201008A1, “SECRETIN-DERIVED GLP1R SELECTIVE AGONISTS” (GUBRA A/S, priority 2023, published 2026).

One assay deals with SCTR (Homo sapiens, UniProt P47872). The experiment in a line: hSCTR potency, cAMP accumulation in CHO-K1 cells stably overexpressing hSCTR. It is filed as cell-based. On the set-up: alternatively Euroscreen ES-712-AF; FAST-0161L; host or cells: CHO-K1. As to conditions: Table 2, extended 30 amino acid peptides; read-out: pEC50 hSCTR (converted). The text has this: (§1) Crude library peptides are screened in 10-fold serial dilutions of 5 concentrations, n=1 time. Tip change is done for the first two serial dilutions. Compound starting concentration (top) will be adjusted throughout the study if needed.
(§2) Purified peptides are screened in 3-fold serial dilutions of 11 concentrations, n=2 times. Tip change is done for all serial dilutions. Compound starting concentration (top) will be adjusted throughout the study. If the top concentration is adjusted or a 5-fold difference in calculated EC50 values is observed, n is increased by 1. EC50 values were calculated by nonlinear regression using sigmoid concentration-response with variable slope.
(§3) Frozen division arrested CHO-K1 cells stably overexpressing the hSCTR were obtained from PerkinElmer (ES-712-AF). Alternatively, a CHO-K1 cell line stably overexpressing the hSCTR was obtained from Euroscreen (FAST-0161L), expanded, aliquoted and frozen. An aliquot was thawed and plated in DPBS with 0.05% casein and 0.5 mM IBMX as 2000 cells/well in a 384-well format. The cells were then immediately stimulated for 30 min at room temperature with graded doses of test compound using human secretin (synthesized at Gubra) as a positive control. cAMP accumulation was measured using a Cisbio assay for Gs coupled receptors (cat. no. 62AM4PEC), where the assay reagents were added as per the manufacturer's instructions and time-resolved fluorescence energy transfer recorded after one hour on a CLARIOstar (BMG Labtech) plate reader.
(cAMP levels reflect the balance of adenylyl cyclase and phosphodiesterase activity.)

The target in a further assay is GLP1R (Homo sapiens, UniProt P43220). The experiment in a line: hGLP1R potency, cAMP accumulation in CHO-K1 cells stably overexpressing hGLP1R. It is filed as cell-based. On the set-up: host or cells: CHO-K1. The following applies: for Selectivity: SCTR EC50/GLP1R EC50 ratio; for EC50: read-out: PEC50 hGLPR1 (converted).
Excerpt: as §1, §2
as §3, with “A” for “Frozen division arrested CHO-K1 cells stably overexpressing the hSCTR were obtained from PerkinElmer (ES-712-AF). Alternatively, a”, “hGLP1R” for “hSCTR”, “(FAST-0145L),” for “(FAST-0161L),”, “GLP-1(7-36)” for “secretin”

Setting [1] is: Table 2, extended 30 amino acid peptides.
[2] abbreviates: Table 3, position X^10 variants of GUB06-046.

The structures appear in SMILES notation. Numbered stars: 1 amine (or outer) side, 2 acyl side, 3 side chain; on linkers, the order of the positions; unused ones are H or OH. Square brackets hold non-standard residues; d marks the D form. Side chains are listed from the residue outwards. Peptide text beside a SMILES is read from it. * marks the point of attachment. C18 diacid = O=C(O)CCCCCCCCCCCCCCCCC(=O)*; γGlu = O=C(O)[C@H](CCC(=O)[*:2])N[*:1]; AEEA = NCCOCCOCC(=O)O; Aib = CC(C)(N)C(=O)O

GLP1R, sequence (P43220 24-463): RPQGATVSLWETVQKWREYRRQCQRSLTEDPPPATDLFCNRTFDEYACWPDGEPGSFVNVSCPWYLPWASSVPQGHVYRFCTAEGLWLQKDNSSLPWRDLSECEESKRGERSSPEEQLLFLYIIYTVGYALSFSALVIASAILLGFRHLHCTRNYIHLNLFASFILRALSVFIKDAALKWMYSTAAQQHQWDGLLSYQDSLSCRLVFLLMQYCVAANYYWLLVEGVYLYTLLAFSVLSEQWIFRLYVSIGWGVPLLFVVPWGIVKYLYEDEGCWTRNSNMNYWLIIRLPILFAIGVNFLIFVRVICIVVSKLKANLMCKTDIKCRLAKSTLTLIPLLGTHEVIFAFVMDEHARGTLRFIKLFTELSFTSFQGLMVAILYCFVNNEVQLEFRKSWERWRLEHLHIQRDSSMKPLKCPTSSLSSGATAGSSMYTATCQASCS
SCTR, sequence (P47872 23-440): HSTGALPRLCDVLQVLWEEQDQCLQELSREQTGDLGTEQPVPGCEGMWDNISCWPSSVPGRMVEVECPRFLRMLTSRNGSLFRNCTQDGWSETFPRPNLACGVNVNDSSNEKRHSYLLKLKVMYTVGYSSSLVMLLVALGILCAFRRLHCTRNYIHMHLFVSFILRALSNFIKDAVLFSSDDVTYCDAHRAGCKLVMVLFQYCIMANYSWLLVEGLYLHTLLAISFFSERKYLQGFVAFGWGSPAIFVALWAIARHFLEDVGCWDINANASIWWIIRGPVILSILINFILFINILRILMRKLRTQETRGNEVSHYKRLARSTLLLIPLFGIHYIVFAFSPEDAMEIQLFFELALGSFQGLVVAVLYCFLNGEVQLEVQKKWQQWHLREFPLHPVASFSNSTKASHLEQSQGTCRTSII

As for `CC(C)C[C@H](NC(=O)[C@H](Cc1ccccc1)NC(=O)[C@H](CCCNC(=N)N)NC(=O)[C@H](CCC(N)=O)NC(=O)[C@H](CCC(=O)O)NC(=O)[C@H](C)NC(=O)[C@H](C)NC(=O)CNC(=O)[C@H](CCC(=O)O)NC(=O)[C@H](CCCCNC(=O)COCCOCCNC(=O)COCCOCCNC(=O)CC[C@H](NC(=O)CCCCCCCCCCCCCCCCC(=O)O)C(=O)O)NC(=O)[C@H](CC(C)C)NC(=O)[C@H](CCCNC(=N)N)NC(=O)[C@H](CO)NC(=O)[C@@H](NC(=O)[C@H](CC(=O)O)NC(=O)[C@H](CO)NC(=O)[C@@H](NC(=O)[C@H](Cc1ccccc1)NC(=O)[C@@H](NC(=O)CNC(=O)[C@H](CCC(=O)O)NC(=O)C(C)(C)NC(=O)[C@@H](N)Cc1c[nH]cn1)[C@@H](C)O)[C@@H](C)O)C(C)C)C(=O)N[C@@H](CCC(N)=O)C(=O)N[C@@H](Cc1c[nH]cn1)C(=O)N[C@@H](CC(C)C)C(=O)N[C@H](C(=O)N[C@@H](CCC(=O)O)C(=O)N[C@@H](C)C(=O)N[C@@H](CCC(=O)O)C(N)=O)C(C)C` [compound 204] (H-H[Aib]EGTFTSDVSRLK([AEEA-AEEA-γGlu-C18 diacid])EGAAEQRFLQHLVEAE-NH2), the EC50 at SCTR was 2510 nM. Further, on GLP1R (setting [1]), the Selectivity amounted to 285714 and the EC50 was 0.01 nM.

As for `CC(C)C[C@H](NC(=O)[C@H](Cc1ccccc1)NC(=O)[C@H](CCCNC(=N)N)NC(=O)[C@H](CCC(N)=O)NC(=O)[C@H](CCC(=O)O)NC(=O)[C@H](C)NC(=O)[C@H](C)NC(=O)CNC(=O)[C@H](CCC(=O)O)NC(=O)[C@H](CCCCNC(=O)COCCOCCNC(=O)COCCOCCNC(=O)CC[C@H](NC(=O)CCCCCCCCCCCCCCCCC(=O)O)C(=O)O)NC(=O)[C@H](CC(C)C)NC(=O)[C@H](CCCNC(=N)N)NC(=O)[C@H](CO)NC(=O)[C@@H](NC(=O)[C@H](CC(=O)O)NC(=O)[C@H](CO)NC(=O)[C@@H](NC(=O)[C@H](Cc1ccccc1)NC(=O)[C@@H](NC(=O)CNC(=O)[C@H](CCC(=O)O)NC(=O)C(C)(C)NC(=O)[C@@H](N)Cc1c[nH]cn1)[C@@H](C)O)[C@@H](C)O)C(C)C)C(=O)N[C@@H](CCC(N)=O)C(=O)N[C@@H](Cc1c[nH]cn1)C(=O)N[C@@H](CC(C)C)C(=O)N[C@H](C(=O)N[C@@H](C)C(=O)N[C@@H](C)C(=O)N[C@@H](CCC(=O)O)C(N)=O)C(C)C` [compound 206] (H-H[Aib]EGTFTSDVSRLK([AEEA-AEEA-γGlu-C18 diacid])EGAAEQRFLQHLVAAE-NH2), the EC50 on SCTR was 5010 nM; on GLP1R (setting [1]), 0.0158 nM. The Selectivity on GLP1R (setting [1]) is 312500.

In the case of `CC[C@H](C)[C@H](NC(=O)[C@H](Cc1ccccc1)NC(=O)[C@H](CCCNC(=N)N)NC(=O)[C@H](CCC(N)=O)NC(=O)[C@H](CC(C)C)NC(=O)[C@H](C)NC(=O)[C@H](C)NC(=O)CNC(=O)[C@H](CCC(=O)O)NC(=O)[C@H](CC(C)C)NC(=O)[C@H](CC(C)C)NC(=O)[C@H](CCCNC(=N)N)NC(=O)[C@H](CO)NC(=O)[C@H](Cc1ccc(O)cc1)NC(=O)[C@H](CC(=O)O)NC(=O)[C@H](CO)NC(=O)[C@@H](NC(=O)[C@H](Cc1ccccc1)NC(=O)[C@@H](NC(=O)CNC(=O)[C@H](CCC(=O)O)NC(=O)C(C)(C)NC(=O)[C@@H](N)Cc1c[nH]cn1)[C@@H](C)O)[C@@H](C)O)C(=O)N[C@@H](CCC(N)=O)C(=O)N[C@@H](Cc1c[nH]c2ccccc12)C(=O)N[C@@H](CC(C)C)C(=O)N[C@H](C(N)=O)C(C)C` [compound 217] (H-H[Aib]EGTFTSDYSRLLEGAALQRFIQWLV-NH2), the Selectivity at GLP1R (setting [2]) is 114.

Take `CC[C@H](C)[C@H](NC(=O)[C@H](Cc1ccccc1)NC(=O)[C@H](CCCNC(=N)N)NC(=O)[C@H](CCC(N)=O)NC(=O)[C@H](CC(C)C)NC(=O)[C@H](C)NC(=O)[C@H](C)NC(=O)CNC(=O)[C@H](CCC(=O)O)NC(=O)[C@H](CC(C)C)NC(=O)[C@H](CC(C)C)NC(=O)[C@H](CCCNC(=N)N)NC(=O)[C@H](CO)NC(=O)[C@@H](NC(=O)[C@H](CC(=O)O)NC(=O)[C@H](CO)NC(=O)[C@@H](NC(=O)[C@H](Cc1ccccc1)NC(=O)[C@@H](NC(=O)CNC(=O)[C@H](CCC(=O)O)NC(=O)C(C)(C)NC(=O)[C@@H](N)Cc1c[nH]cn1)[C@@H](C)O)[C@@H](C)O)[C@@H](C)CC)C(=O)N[C@@H](CCC(N)=O)C(=O)N[C@@H](Cc1c[nH]c2ccccc12)C(=O)N[C@@H](CC(C)C)C(=O)N[C@H](C(N)=O)C(C)C` [compound 218] (H-H[Aib]EGTFTSDISRLLEGAALQRFIQWLV-NH2): the Selectivity at GLP1R (setting [2]) came out at 459.

For the compound `CC[C@H](C)[C@H](NC(=O)[C@H](Cc1ccccc1)NC(=O)[C@H](CCCNC(=N)N)NC(=O)[C@H](CCC(N)=O)NC(=O)[C@H](CC(C)C)NC(=O)[C@H](C)NC(=O)[C@H](C)NC(=O)CNC(=O)[C@H](CCC(=O)O)NC(=O)[C@H](CC(C)C)NC(=O)[C@H](CC(C)C)NC(=O)[C@H](CCCNC(=N)N)NC(=O)[C@H](CO)NC(=O)[C@H](Cc1c[nH]c2ccccc12)NC(=O)[C@H](CC(=O)O)NC(=O)[C@H](CO)NC(=O)[C@@H](NC(=O)[C@H](Cc1ccccc1)NC(=O)[C@@H](NC(=O)CNC(=O)[C@H](CCC(=O)O)NC(=O)C(C)(C)NC(=O)[C@@H](N)Cc1c[nH]cn1)[C@@H](C)O)[C@@H](C)O)C(=O)N[C@@H](CCC(N)=O)C(=O)N[C@@H](Cc1c[nH]c2ccccc12)C(=O)N[C@@H](CC(C)C)C(=O)N[C@H](C(N)=O)C(C)C` [compound 219] (H-H[Aib]EGTFTSDWSRLLEGAALQRFIQWLV-NH2), the Selectivity on GLP1R (setting [2]) worked out at 478.

For the compound `CC[C@H](C)[C@H](NC(=O)[C@H](Cc1ccccc1)NC(=O)[C@H](CCCNC(=N)N)NC(=O)[C@H](CCC(N)=O)NC(=O)[C@H](CC(C)C)NC(=O)[C@H](C)NC(=O)[C@H](C)NC(=O)CNC(=O)[C@H](CCC(=O)O)NC(=O)[C@H](CC(C)C)NC(=O)[C@H](CC(C)C)NC(=O)[C@H](CCCNC(=N)N)NC(=O)[C@H](CO)NC(=O)[C@@H](NC(=O)[C@H](CC(=O)O)NC(=O)[C@H](CO)NC(=O)[C@@H](NC(=O)[C@H](Cc1ccccc1)NC(=O)[C@@H](NC(=O)CNC(=O)[C@H](CCC(=O)O)NC(=O)C(C)(C)NC(=O)[C@@H](N)Cc1c[nH]cn1)[C@@H](C)O)[C@@H](C)O)C(C)C)C(=O)N[C@@H](CCC(N)=O)C(=O)N[C@@H](Cc1c[nH]c2ccccc12)C(=O)N[C@@H](CC(C)C)C(=O)N[C@H](C(N)=O)C(C)C` [compound 220] (H-H[Aib]EGTFTSDVSRLLEGAALQRFIQWLV-NH2), the Selectivity on GLP1R (setting [2]) is reported as 891.

On to `CC[C@H](C)[C@H](NC(=O)[C@H](Cc1ccccc1)NC(=O)[C@H](CCCNC(=N)N)NC(=O)[C@H](CCC(N)=O)NC(=O)[C@H](CC(C)C)NC(=O)[C@H](C)NC(=O)[C@H](C)NC(=O)CNC(=O)[C@H](CCC(=O)O)NC(=O)[C@H](CC(C)C)NC(=O)[C@H](CC(C)C)NC(=O)[C@H](CCCNC(=N)N)NC(=O)[C@H](CO)NC(=O)[C@@H]1CCCN1C(=O)[C@H](CC(=O)O)NC(=O)[C@H](CO)NC(=O)[C@@H](NC(=O)[C@H](Cc1ccccc1)NC(=O)[C@@H](NC(=O)CNC(=O)[C@H](CCC(=O)O)NC(=O)C(C)(C)NC(=O)[C@@H](N)Cc1c[nH]cn1)[C@@H](C)O)[C@@H](C)O)C(=O)N[C@@H](CCC(N)=O)C(=O)N[C@@H](Cc1c[nH]c2ccccc12)C(=O)N[C@@H](CC(C)C)C(=O)N[C@H](C(N)=O)C(C)C` [compound 221] (H-H[Aib]EGTFTSDPSRLLEGAALQRFIQWLV-NH2), for which, at GLP1R (setting [2]), the Selectivity is on record as 2086.
